{"source": "patent US20230109839A1", "about": "“THERAPEUTIC AGENT FOR TAUOPATHIES” (SUMITOMO PHARMA CO., LTD., priority 2020, published 2023)", "key": {"[1]": {"test_system": "intracerebral tau aggregate accumulation", "assay": "Intracerebral tau aggregate accumulation in rTg4510 mice, tau PET with [18F] PM-PBB3, SUVR (Test 5)", "type": "in vivo, mouse", "details": "for SUVR(cerebellum ratio) cerebral neocortex / SUVR(cerebellum ratio) hippocampus: 4.5 mg/g-food, with ABT 1 mg/g-food", "excerpt": "(§1) Test 5: Evaluation of Intracerebral Tau Aggregate Accumulation and Cerebral Atrophy Using rTg4510 Mice\n(§2) This test is a test to evaluate the effects of the compounds on intracerebral tau aggregate accumulation and cerebral atrophy. The rTg4510 mice overexpress the human-type FTDP-17 mutant tau in the forebrain, and month-age-dependent intracerebral tau aggregate accumulation and cerebral atrophy are observed. The rTg4510 mice used herein were produced by mating Tg (tauP301L) 4510 mice (Stock No. 015815) and CaMKII-tTA mice (Stock No. 007004) purchased from The Jackson Laboratory and breeding them.\n(§3) The test compound was administered as a mixed diet to rTg4510 mice from the age of 4 months, and PET scan and MRI were performed at the ages of 4, 6 and 8 months to quantitatively evaluate the amount of the intracerebral tau aggregate accumulated and cerebral atrophy. The PET scan was performed using MicroPET Focus 220 of Siemens Medical Solutions (0.851 mm thick (intercenter) 95 slices, 19.0 cm axial field of view (FOV), and 7.6 cm intra-section FOV). The administration of radioactive compound [^18F] PM-PBB3 (precursor obtained from Aprinoia) and the PET scan were performed in dimly lit after the mice was treated with 1.5% isoflurane anesthesia to avoid […] of the radioactive compound. The emission scan was performed for 60 minutes immediately after the intravenous administration of [^18F] PM-PBB3 (1 mCi) (3D list mode, energy window: 350-750 keV). Then, the list mode data sorted into 3D synograms were converted into 2D synograms by Fourier-rebinding (frames: 4×1, 8×2 and 8×5 minutes). The dynamic image for 60 minutes after the administration of [^18F] PM-PBB3 was reconstructed by a filter-corrected back projection with a 0.5 mm Hanning filter. Regions of interest (ROI) were set in multiple brain regions using PMOD image analysis software (PMOD Technology) with reference to the MRI templates and the PET reconstructed images. Tau aggregate accumulation was evaluated by calculating SUVR (Standardized uptake value ratio) with the cerebellum as a reference region, based on the added average of dynamic images from 40 minutes to 60 minutes."}, "[2]": {"test_system": "phosphorylated tau oligomer", "assay": "Evaluation of phosphorylated tau oligomers in brain of APP-Tg mice, Western blotting (Test 4)", "type": "in vivo, mouse", "details": "for Reducing effect of phosphorylated tau oligomer: 7-10 days, with ABT 1 mg/g-food; for reducing effect of tau oligomer: with food for 7-10 days, ABT 1 mg/g-food depending on the compound, brain, anti-oligomerized tau antibody TOMA-1", "method": "Test 4: Evaluation of Phosphorylated Tau Oligomers Using APP-Tg Mice\nThis test is a test to quantify the oligomer of phosphorylated tau in the brain to evaluate the action of a compound. […] The APP-Tg mice used herein were prepared by the method described in Test 3.\nThe test compound administered with food to APP-Tg mice for 7-10 days. At this time, in order to increase the blood concentration of the test compound, ABT was used in combination with a mixed diet of 1 mg/g-food depending on the compound. After the administration, the brain was collected, and the protein is extracted from the collected brain using TBS (Tris Buffered Saline) or sarcosyl, and then SDS-PAGE (sodium dodecyl sulfate-polyacrylamide gel electrophoresis) of the soluble or insoluble fraction was performed. After that, Western blotting was performed using an anti-oligomerized tau antibody (Anti-Tau, oligomeric, clone TOMA-1), and the effect of the test compound was evaluated by quantifying the band amount of the phosphorylated tau oligomer.\nThe reducing effect of phosphorylated tau oligomer was calculated by the following formula, and from the calculated values, the results were defined as follows: 0-25%: +, 25-50%: ++, 50-75%: +++, and 75-100%: ++++. The significant difference from the vehicle-administered group was determined using the Student t-test. For the band amount, the value corrected by the β-actin band amount was used.\nReducing effect of phosphorylated tau oligomer={(band amount of oligomerized tau in vehicle-administered group−band amount of oligomerized tau in test compound-administered group)/band amount of oligomerized tau in vehicle-administered group}×100"}, "[3]": {"test_system": "rTg4510 mice", "assay": "Cerebral atrophy in rTg4510 mice, MRI volume of brain regions (Test 5)", "type": "in vivo, mouse", "details": "for lateral ventricular volume (mm^3): 4.5 mg/g-food, with ABT 1 mg/g-food", "excerpt": "as §1, §2, §3\nThe evaluation of cerebral atrophy was performed with horizontal superconducting magnet type MRI (7T, inner diameter 400 mm, self-shielding type, zero boil-off type). The imaging was performed under isoflurane anesthesia while maintaining the rectal temperature at 36.5±0.5° C. After Tripilot acquisition, the brain images were acquired by TurboRARE T2 emphasis sequence (TR: 4200 ms, TE: 36 ms, Fat-Sup: on, NA: 4, RARE factor: 8, scan time: 14 min) (FOV read: 25.6 mm, FOV P1: 14.5 mm, Slice thickness: 0.5 mm, number of slices: 28). The ROI of each brain region was set in each of the acquired slices, and the volume of the brain region was calculated by summing the ROI areas of all the slices to evaluate the effect of the test compound."}, "[4]": {"test_system": "APP-Tg mouse", "assay": "Evaluation of the cognitive function by novel object recognition test (NORT) in APP-Tg mice (Test 3)", "type": "in vivo", "design": "key to Discrimination index: (novel − known search time)/(novel + known search time)", "details": "for Discrimination index: APP-Tg mouse, with ABT 1 mg/g-food", "method": "Test 3: Evaluation of the Cognitive Function by Novel Object Recognition Test (Hereinafter, Also Referred to as “NORT”)\nThe present test is for evaluating the improvement of cognitive function with the test compounds. When an APP-Tg mouse which is an AD (Alzheimer's disease) model mouse is evaluated by NORT, the memory for a familiar object decreases depending on the time interval between the first trial run (training) and the second trial run (test). For example, if the first trial run is done and 3 hours later the second one is done, there is no difference in the searching times between novel object and known object for the APP-Tg mouse, compared with a healthy mouse. Thus, the APP-Tg mouse suffers from significant amnesia.\nThe APP-Tg mouse used herein was prepared by constructing an expression cassette linked to human APP751 isoform to which Swedish (K670N/M671L) and Indiana (V717F) mutation were introduced at downstream of mouse Thy-1 promoter, then injecting the expression cassette into a mouse fertilized egg, and transplanting it to a host mouse. The prepared mouse presents with intracerebral AB accumulation and cognitive dysfunction from early on, and thus the mouse can be used for the evaluation of cognitive function. APP-Tg mouse has been also reported in Non-patent literature 6.\nTo the prepared APP-Tg mouse, the test compound was administered, and then the first trial run was done for the mouse 30 minutes after the intraperitoneal administration or after 10 days of mixed diet administration. The second trial run was done 3 hours after the first trial run, and the searching times between novel object and known object in the second trial were evaluated. The discrimination index was calculated from the searching time for novel object and known object in the second trial run, and the improvement of cognitive function of the test compound was confirmed by comparing the discrimination index with the test compound-unadministered group as an index of the cognitive function. The discrimination index was calculated by the following formula.\nDiscrimination index={(Searching time for novel object)−(Searching time for known object)}/{(Searching time for novel object)+(Searching time for known object)}\nThe present test can be also done with a combination with Elacridar (Tokyo Chemical Industry Co., Ltd.). Elacridar can inhibit P-gp and BCRP which are excretion transporters expressed in the blood-brain barrier and thereby Elacridar has the effect of improving the transferability of the test compound to the brain. Eracridal was orally administered to APP-Tg mice at 100 mg/kg 2 hours before the first trial run, and then the test compound was intraperitoneally administered to the mice 30 minutes before the first trial run according to the above method. And, the improvement of cognitive function was evaluated. The significant difference from the vehicle-administered group was determined using the parametric Dunnett multiple comparison test.\nAnd, the present test can be also done with a combination with ABT (1-aminobenzotriazole) (Tokyo Chemical Industry Co., Ltd.). ABT has the effect of improving the blood concentration of the test compound by inhibiting CYP and suppressing metabolism. The test compound and ABT (1 mg/g-food) were administered with food to APP-Tg mice for 10 days, and then the improvement of cognitive function was evaluated according to the above method. The significant difference from the vehicle-administered group was determined using the parametric Dunnett multiple comparison test."}, "[5]": {"target": "T1, human Nav1.1 (Homo sapiens, UniProt P35498)", "T1 construct": "host or cells: HEK293", "assay": "Amplification of Nav1.1-derived voltage-gated sodium current (Nav1.1 current), automated patch clamp (Test 1)", "type": "cell-based", "details": "HEK293, Concentration for evaluation 1 μM; HEK293 cell line stably expressing human Nav1.1; read-out: Nav1.1 current amplification rate (%)", "procedure,_shortened": "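HEK293 cells stably expressing human Nav1.1, restricted to cells with >500 pA current, were recorded by automated voltage-clamp patch clamp with a ramp voltage stimulus. Compounds were applied in HEPES-buffered extracellular solution with 1% DMSO. Amplification (%) = 100×(peak or AUC after/before compound)−100.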"}, "[6]": {"details": "mixed diet 4.5 mg/g-food with ABT 1 mg/g-food"}}, "note": "“Also recorded” adds a separate entry of the source.", "data": [{"smiles": "N#Cc1ccc(NC(=O)Cn2nc(N3CCC4(CC4)C(F)(F)C3)ccc2=O)cn1", "note": "[Example 560, N-(6-cyanopyridin-3-yl)-2-[3-(4,4-difluoro-6-azaspiro[2.5]octan-6-yl)-6-oxopyridazin-1(6H)-yl]acetamide]", "values": [{"measurement": "SUVR(cerebellum ratio) cerebral neocortex", "setting": "[1]; 4 month old", "value": "1.026 ± 0.037"}, {"measurement": "SUVR(cerebellum ratio) hippocampus", "setting": "[1]; 4 month old", "value": "1.103 ± 0.036"}, {"measurement": "SUVR(cerebellum ratio) cerebral neocortex", "setting": "[1]; 6 month old", "value": "1.224 ± 0.060"}, {"measurement": "SUVR(cerebellum ratio) hippocampus", "setting": "[1]; 6 month old", "value": "1.328 ± 0.078"}, {"measurement": "SUVR(cerebellum ratio) cerebral neocortex", "setting": "[1]; 8 month old", "value": "1.351 ± 0.049"}, {"measurement": "SUVR(cerebellum ratio) hippocampus", "setting": "[1]; 8 month old", "value": "1.468 ± 0.056"}, {"measurement": "age-dependent increase in SUVR in the cerebral neocortex and hippocampus (FIG. 7)", "setting": "[1]; [6]", "value": "tended to be suppressed"}, {"measurement": "increase in PET tracer accumulation in each brain region with aging (average SUVR images, FIG. 6)", "setting": "[1]; mixed diet 4.5 mg/g-food with ABT 1 mg/g-food, ages 4, 6 and 8 months", "value": "suppressed"}, {"measurement": "Reducing effect of phosphorylated tau oligomer", "setting": "[2]; dose 0.5 mg/g-food", "value": "++ (25-50%: ++)"}, {"measurement": "Reducing effect of phosphorylated tau oligomer", "setting": "[2]; dose 4.5 mg/g-food", "value": "++++ (75-100%: ++++)"}, {"measurement": "reducing effect of tau oligomer", "setting": "[2]", "value": "some reducing effect of tau oligomer; also recorded: strong reducing effect of tau oligomer"}, {"measurement": "lateral ventricular volume (mm^3)", "setting": "[3]; 4 month old", "value": "0.47 ± 0.06", "unit": "mm^3"}, {"measurement": "lateral ventricular volume (mm^3)", "setting": "[3]; 6 month old", "value": "0.34 ± 0.10", "unit": "mm^3"}, {"measurement": "lateral ventricular volume (mm^3)", "setting": "[3]; 8 month old", "value": "0.71 ± 0.35", "unit": "mm^3"}, {"measurement": "age-dependent increase in lateral ventricular volume", "setting": "[3]; [6]", "value": "suppressed"}]}, {"smiles": "CN(c1cnc2cnn(CC(=O)Nc3ccn4ncnc4c3)c2n1)C1CC2(CC2)C1", "note": "[Example 630, 2-{6-[methyl(spiro[2.3]hexan-5-yl)amino]-1H-pyrazolo[3,4-b]pyrazin-1-yl}-N-([1,2,4]triazolo[1,5-a]pyridin-7-yl)acetamide]", "values": [{"measurement": "Reducing effect of phosphorylated tau oligomer", "setting": "[2]; dose 0.2 mg/g-food", "value": "++ (25-50%: ++)"}, {"measurement": "Reducing effect of phosphorylated tau oligomer", "setting": "[2]; dose 2 mg/g-food", "value": "++ (25-50%: ++)"}, {"measurement": "reducing effect of tau oligomer", "setting": "[2]", "value": "some reducing effect of tau oligomer"}, {"measurement": "improvement of cognitive function (NORT), summary of the above results", "setting": "[4]; APP-Tg mice, alone, with Elacridar or with ABT depending on the compound", "value": "some improvement of cognitive function"}, {"measurement": "improvement of cognitive function (NORT)", "setting": "[4]; APP-Tg mice, test compound and ABT (1 mg/g-food) administered with food for 10 days", "value": "some improvement of cognitive function"}, {"measurement": "Discrimination index", "setting": "[4]; dose 0.2 mg/g-food for 10 days", "value": 0.04}, {"measurement": "Discrimination index", "setting": "[4]; dose 2 mg/g-food for 10 days", "value": 0.45}, {"measurement": "activation at 1 µM", "setting": "[5]", "value": 120, "unit": "%"}]}]}
